Measurements taken from patent US6613538B2, “Detection of HLA-G” (priority 1999, dated 2003).

Key:
Format in all cases: cell-based, human
[1] = tested on: cytotrophoblasts (placenta cell culture); experiment: HLA-G protein by ELISA after progesterone treatment; conditions: progesterone 100 ng and 1000 ng/ml, 24 hours
Protocol: (§1) Methods. Purified cytotrophoblasts were prepared from first trimester placental tissue by standard techniques. JEG-3 choriocarcinoma cells were cultured in RPMI-1640 medium containing 10% FCS for three days. The cells were then treated with various doses of progesterone for 24 hours. Cell lysates and conditioned media were prepared for ELISA and total RNA was extracted for PCR. The ELISA was conducted according to the invention, using the 3C/G4 and 2C/C8 anti-HLA-G monoclonal antibodies. HLA-G protein, purified by immunoaffinity columns from first trimester placental tissue, was used as standard. The sensitivity of the ELISA was 20 ng/ml and assay variation was less than 10%. Quantitative RT-PCR was performed by using specific primers for HLA-G. Results were assessed for statistical significance using one-way analysis of variance.

[2] = tested on: JEG-3 choriocarcinoma cells; experiment: as above; conditions: progesterone doses from 10 ng/ml, 24 hours
Protocol: as §1

[3] = tested on: cytotrophoblast cells; experiment: HLA-G mRNA by quantitative RT-PCR after progesterone treatment
Protocol: as §1

[4] = tested on: JEG-3 choriocarcinoma cells; experiment: as above
Protocol: as §1

CC(=O)[C@H]1CC[C@H]2[C@@H]3CCC4=CC(=O)CC[C@]4(C)[C@H]3CC[C@]12C [progesterone]
HLA-G protein in placenta cell culture [1]: significantly increased | HLA-G concentration in JEG-3 cell lysate [2]: significant increase | HLA-G concentration in JEG-3 conditioned medium [2]: significant increase | HLA-G mRNA levels in cytotrophoblast cells [3]: increase of HLA-G mRNA levels | HLA-G mRNA levels in JEG-3 cells ([4]; after progesterone treatment, RT-PCR): increase of HLA-G mRNA levels | HLA-G mRNA levels at 1000 ng/ml versus 10 and 100 ng/ml ([4]; progesterone 1000 ng/ml, cell type not specified in the sentence (JEG-3 and cytotrophoblast cells tested)): significantly higher HLA-G mRNA levels
